Among the data in ChEMBL document CHEMBL4483862, “Open-source discovery of chemical leads for next-generation chemoprotective antimalarials” (2018) are IC50 and IC90 values, retold here.

Structures are written as SMILES.

The test system of this assay is Plasmodium berghei. Description: Luciferase/luciferin-expressing antifolate-resistant parasites were used to infect a culture of HepG2 cells that were pre-incubated with compounds. Infected hepatocytes emit light due to the luciferase reaction. Assay results are presented as the percent inhibition of light emission compared to control. […]. As to conditions: sporozoite; for IC90: read-out: LUCIFERASE INFECTION ASSAY - IC90. It counts as functional.

The mark [1] stands for this setting: read-out: LUCIFERASE INFECTION ASSAY - IC50.

For `COc1ccc(S(=O)(=O)N2CCc3ccccc32)cc1C(=O)Oc1c(Cl)cc(Cl)c2ccc(C)nc12`, the 90% effect concentration (IC90) (commonly the concentration needed for an effect of 90%) is more than 10 µM. For the setting “PBLUC_HILL_SLOPE 13.5, PBLUC_R_SQUARED 0.253, read-out: LUCIFERASE INFECTION ASSAY - IC50”, the IC50 (in general, the point on the concentration scale where inhibition reaches its midpoint) was more than 10 µM.

Regarding `O=C(CCC(=O)c1ccc2c(c1)OCCO2)OCn1nnc2ccccc2c1=O`, the 90% effect concentration (IC90) is more than 10 µM. For the same compound, the IC50 under setting [1] is more than 10 µM.

For `COc1ccc(-c2nonc2NC(=O)c2oc3ccc(F)cc3c2C)cc1`, the IC90 was found to be 1.27 µM. Moreover, the half-maximal inhibitory concentration (IC50) (HEPG2TOX_HILL_SLOPE 1.77, HEPG2TOX_R_SQUARED 0.888, PBLUC_HILL_SLOPE 11.3, PBLUC_R_SQUARED 0.0148, read-out: LUCIFERASE INFECTION ASSAY - IC50) stood at 1.05 µM.

In the case of `Cc1sc2ncnc(N/N=C/c3cn(-c4ccccc4)nc3-c3ccc4c(c3)OCCO4)c2c1C`, the IC90 came to 3.63 µM. The IC50 (HEPG2TOX_HILL_SLOPE 4.65, HEPG2TOX_R_SQUARED 0.952, PBLUC_HILL_SLOPE 26.5, PBLUC_R_SQUARED 0.19, read-out: LUCIFERASE INFECTION ASSAY - IC50) stood at 3.34 µM.

In the case of `COC(=O)c1c(C)[nH]c(C(=O)C(C)Sc2nnc(Cc3cccc4ccccc34)n2C2CCCCC2)c1C` (centres undefined), the 90% effect concentration (IC90) was more than 10 µM. Further, the IC50 (FFLUC_HILL_SLOPE 16.1, FFLUC_R_SQUARED 0.161, read-out: LUCIFERASE INFECTION ASSAY - IC50) is more than 10 µM.

With `O=[N+]([O-])c1c(N2CCOCC2)ccc2nsnc12`, the concentration for an effect of 90% (IC90) was more than 12.4 µM. Besides, where the note is “HEPG2TOX_HILL_SLOPE 10.9, HEPG2TOX_R_SQUARED 0.296, read-out: LUCIFERASE INFECTION ASSAY - IC50”, the IC50 was more than 12.4 µM.

For `FC(F)(F)c1cc(NCc2ccccc2C(F)(F)F)nc(-c2ccccn2)n1`, the IC90 stood at 7.12 µM. Besides, where the note is “PBLUC_HILL_SLOPE 3.13, PBLUC_R_SQUARED 0.711, read-out: LUCIFERASE INFECTION ASSAY - IC50”, the IC50 was determined as 3.52 µM.

For the compound `Cc1cc(S(=O)(=O)c2ccc(OC(=O)CC3CCCC3)c(C)c2)ccc1OC(=O)CC1CCCC1`, the IC90 was more than 10 µM. Further, for the setting “HEPG2TOX_HILL_SLOPE 0.0998, HEPG2TOX_R_SQUARED 0.18, PBLUC_HILL_SLOPE 0.103, PBLUC_R_SQUARED 0.0204, read-out: LUCIFERASE INFECTION ASSAY - IC50”, the 50% inhibitory concentration (IC50) was more than 10 µM.

Consider `CCCNC(=O)c1c(NC(=O)c2cccc(OC)c2)nc2ccc(C)cn12`, for which the concentration for an effect of 90% (IC90) amounted to 8.77 µM. The IC50 (HEPG2TOX_HILL_SLOPE 7.34, HEPG2TOX_R_SQUARED 0.277, PBLUC_HILL_SLOPE 3.84, PBLUC_R_SQUARED 0.328, read-out: LUCIFERASE INFECTION ASSAY - IC50) was 4.95 µM.

`O=c1nc(CCc2ccc3c(c2)OCCO3)[nH]c2ccccc12`: the IC90 was determined as 3.7 µM. For the same compound, the concentration for half-maximal inhibition (IC50) (PBLUC_HILL_SLOPE 12.5, PBLUC_R_SQUARED 0.668, read-out: LUCIFERASE INFECTION ASSAY - IC50) was determined as 3.11 µM.

As to `Cc1cc(SCCN)c2cc(F)ccc2n1`, the concentration for an effect of 90% (IC90) was more than 14 µM. For the same compound, under “HEPG2TOX_HILL_SLOPE 2.08, HEPG2TOX_R_SQUARED 0.947, PBLUC_HILL_SLOPE 2.61, PBLUC_R_SQUARED 0.644, read-out: LUCIFERASE INFECTION ASSAY - IC50”, the IC50 was determined as 6.26 µM.

Consider `COc1ccnc(Nc2ccc3c(c2)nc2n3CCCCC2)n1`, for which the IC90 stood at 2.84 µM. Besides, the IC50 (FFLUC_HILL_SLOPE 0.925, FFLUC_R_SQUARED 0.902, HEPG2TOX_HILL_SLOPE 18.6, HEPG2TOX_R_SQUARED 0.895, PBLUC_HILL_SLOPE 0.753, PBLUC_R_SQUARED 0.781, read-out: LUCIFERASE INFECTION ASSAY - IC50) was 0.154 µM.

Take `CCOC(=O)c1c(NC(=O)Cn2c(=O)c(C#N)c3n(c2=O)CCC3)sc(C)c1CC`: the IC90 is more than 10 µM. The IC50 (PBLUC_HILL_SLOPE 0.645, PBLUC_R_SQUARED 0.0864, read-out: LUCIFERASE INFECTION ASSAY - IC50) is more than 10 µM.

Regarding `CC(=O)Nc1ccc(/C=C2\S/C(=N\c3cccc4ccccc34)N(Cc3ccccc3F)C2=O)cc1`, the IC90 was more than 10 µM. For the same compound, under setting [1], the half-inhibitory concentration (IC50) worked out at 6.52 µM.

Turning to `c1ccc(CCNc2nn3c(-c4ccsc4)cnc3s2)nc1`, the 90% effect concentration (IC90) was more than 10.1 µM. Moreover, the IC50 under setting [1] was more than 10.1 µM.

Regarding `O=C(Nc1ccc(OC(F)(F)F)cc1)N1CCN(c2cc(C(F)(F)F)nc3ccccc23)CC1`, the 90% effect concentration (IC90) is more than 6.81 µM. Further, under setting [1], the IC50 was more than 6.81 µM.

Regarding `CCC(C)(C)NS(=O)(=O)c1ccc(C(C)(C)C)cc1`, the 90% effect concentration (IC90) is more than 10 µM. Where the note is “PBLUC_HILL_SLOPE 1.46, PBLUC_R_SQUARED 0.189, read-out: LUCIFERASE INFECTION ASSAY - IC50”, the IC50 was more than 10 µM.

With `Fc1ccc(-c2cc3ncnc(N4CCN(CCN5CCCC5)CC4)c3s2)cc1`, the 90% effect concentration (IC90) is more than 10 µM. For the same compound, under “PBLUC_HILL_SLOPE 17, PBLUC_R_SQUARED 0.345, read-out: LUCIFERASE INFECTION ASSAY - IC50”, the IC50 turned out to be 9.86 µM.

As to `CC(C)C(=O)Nc1c(-c2ccc(Cl)c(Cl)c2)c(=O)c2ccccc2n1C`, the IC90 stood at 3.11 µM. Further, the half-inhibitory concentration (IC50) (PBLUC_HILL_SLOPE 11.7, PBLUC_R_SQUARED 0.375, read-out: LUCIFERASE INFECTION ASSAY - IC50) came to 2.58 µM.

For the compound `Cn1ccnc1Sc1ncnc2ccsc12`, the IC90 was 9.45 µM. Moreover, for the setting “PBLUC_HILL_SLOPE 4.08, PBLUC_R_SQUARED 0.748, read-out: LUCIFERASE INFECTION ASSAY - IC50”, the IC50 was determined as 5.51 µM.

For the compound `COc1ccc(-c2cnc3cnc(-c4ccccc4C)cn23)cn1`, the concentration for an effect of 90% (IC90) is 4.17 µM. For the same compound, the IC50 under setting [1] is 2.21 µM.

As to `c1ccc(CCNCc2cn(-c3ccccc3)nc2-c2cccs2)cc1`, the IC90 is more than 10 µM. Also, the half-maximal inhibitory concentration (IC50) (PBLUC_HILL_SLOPE 3.19, PBLUC_R_SQUARED 0.352, read-out: LUCIFERASE INFECTION ASSAY - IC50) was determined as 9.18 µM.

For the compound `Cc1cc(C)n(-c2cc(N3CCN(C)CC3)nc(-c3ccccc3)n2)n1`, the IC90 was more than 9.47 µM. Also, the IC50 (PBLUC_HILL_SLOPE 14.6, PBLUC_R_SQUARED 0.207, read-out: LUCIFERASE INFECTION ASSAY - IC50) was 8.77 µM.

For `OC1CCN(c2ccnc3c(-c4ccc5ccccc5c4)cnn23)CC1`, the IC90 was determined as 0.96 µM. Moreover, where the note is “PBLUC_HILL_SLOPE 1.1, PBLUC_R_SQUARED 0.73, read-out: LUCIFERASE INFECTION ASSAY - IC50”, the IC50 was determined as 0.129 µM.

For the compound `COc1ccc(-c2cnc3cnc(-c4cccc(N)c4)cn23)cc1`, the concentration for an effect of 90% (IC90) worked out at 1.68 µM. In addition, the half-maximal inhibitory concentration (IC50) (FFLUC_HILL_SLOPE 0.419, FFLUC_R_SQUARED 0.0515, PBLUC_HILL_SLOPE 8.9, PBLUC_R_SQUARED 0.87, read-out: LUCIFERASE INFECTION ASSAY - IC50) is 1.31 µM.

Take `O=C1C(=O)N(CCN2CCCCC2)c2ccc(F)cc21`: the 90% effect concentration (IC90) was more than 11.9 µM. The half-maximal inhibitory concentration (IC50) under setting [1] is more than 11.9 µM.

With `c1ccc(CN2CCC(Nc3ncnc4sccc34)CC2)cc1`, the IC90 was more than 10 µM. The concentration for half-maximal inhibition (IC50) under setting [1] amounted to 8.87 µM.

`COc1ccc(-c2c(C)nn3c(=O)cc(-c4ccccc4)[nH]c23)cc1`: the IC90 worked out at 9.94 µM. Further, the 50% inhibitory concentration (IC50) (HEPG2TOX_HILL_SLOPE 10.3, HEPG2TOX_R_SQUARED 0.705, PBLUC_HILL_SLOPE 12.5, PBLUC_R_SQUARED 0.547, read-out: LUCIFERASE INFECTION ASSAY - IC50) was 8.34 µM.

Consider `FC(F)(F)c1cccc(-c2ccc3ncc(-c4cccnc4)n3n2)c1`, for which the IC90 was 2.23 µM. The 50% inhibitory concentration (IC50) (HEPG2TOX_HILL_SLOPE 12.4, HEPG2TOX_R_SQUARED 0.643, PBLUC_HILL_SLOPE 4.46, PBLUC_R_SQUARED 0.619, read-out: LUCIFERASE INFECTION ASSAY - IC50) was determined as 1.36 µM.

As for `c1csc(-c2cnc3sc(NCC4CCOCC4)nn23)c1`, the IC90 was more than 10.3 µM. For the same compound, the IC50 under setting [1] is more than 10.3 µM.

With `C(=C(c1nc2ccccc2s1)c1nc2ccccc2s1)c1ccncc1`, the 90% effect concentration (IC90) is 6.3 µM. Also, the IC50 (HEPG2TOX_HILL_SLOPE 11.7, HEPG2TOX_R_SQUARED 0.737, PBLUC_HILL_SLOPE 3.59, 2.80, PBLUC_R_SQUARED 0.729, 0.898, read-out: LUCIFERASE INFECTION ASSAY - IC50) turned out to be 3.12 µM.

On to `CCOc1cccc(-c2cn3c(-c4ccc5ncccc5c4)cnc3cn2)c1`, for which the concentration for an effect of 90% (IC90) was 0.0959 µM. The IC50 (HEPG2TOX_HILL_SLOPE 1.97, HEPG2TOX_R_SQUARED 0.663, PBLUC_HILL_SLOPE 2.12, PBLUC_R_SQUARED 0.862, read-out: LUCIFERASE INFECTION ASSAY - IC50) was 0.0341 µM.

In the case of `Cc1cc(=O)oc2cc(NCC(=O)Nc3cc4c(cc3Cl)OCCO4)ccc12`, the IC90 was more than 10 µM. For the same compound, under setting [1], the half-maximal inhibitory concentration (IC50) was more than 10 µM.

As for `Cc1nc(Sc2ncnc3scc(-c4ccc(F)cc4)c23)oc1C`, the 90% effect concentration (IC90) is more than 10 µM. The IC50 under setting [1] was more than 10 µM.

As to `O=C(NCc1ccccc1)/C(=C/c1ccc(OCc2ccccc2)cc1)c1nc2ccccc2[nH]1`, the concentration for an effect of 90% (IC90) came to 1.26 µM. Also, the IC50 (FFLUC_HILL_SLOPE 9.07, FFLUC_R_SQUARED 0.413, PBLUC_HILL_SLOPE 2.18, PBLUC_R_SQUARED 0.79, read-out: LUCIFERASE INFECTION ASSAY - IC50) amounted to 0.462 µM.

`C=CCn1c(SCc2cn3c(C)cccc3n2)nc2sc(C)c(C)c2c1=O`: the concentration for an effect of 90% (IC90) is more than 10 µM. For the setting “FFLUC_HILL_SLOPE 10.3, FFLUC_R_SQUARED 0.131, HEPG2TOX_HILL_SLOPE 7.8, HEPG2TOX_R_SQUARED 0.483, read-out: LUCIFERASE INFECTION ASSAY - IC50”, the IC50 is more than 10 µM.

On to `O=C(Nc1cccc(F)c1)Nc1ccc2nc(-c3cccnc3)nn2c1`, for which the IC90 was more than 10 µM. The IC50 under setting [1] is more than 10 µM.
